Series [1] deals with Rattus norvegicus. The series can be described thus: Bioavailability in fasted Sprague-Dawley rat assessed as urinary excretion of phosphoric acid at 10 to 50 mg/kg, po after 24 hrs by HPLC relative to iv dosed phosphoric acid. The format is ADME, organism-based, Urine. The following applies: in vivo.
Series [2] has as its system Rattus norvegicus. The series can be described thus: Reduction in blood glucose level in fasted Sprague-Dawley rat at 30 mg/kg, po relative to control. In kind it is functional. The arrangement: scale not given: the % may be the effect or the level left.
The subject of series [3] is Rattus norvegicus. In words: Reduction in blood glucose level in Sprague-Dawley rat assessed as time of maximum glucose lowering at 30 mg/kg, po. In kind it is functional.
In the next series the test system is Hepatocyte. In words: Drug uptake in cryopreserved human hepatocytes per million cells at 100 uM after 60 mins. The format is ADME, cell-based. The note with it: 1 h.
Series [4] in a line: Stability in human liver S9 fractions assessed as prodrug conversion per mg of protein. The format is ADME, subcellular, S9 fraction.
The test system of series [5] is Rattus norvegicus. The series can be described thus: Reduction in blood glucose level in fasted Sprague-Dawley rat at <=10 mg/kg, iv relative to control. In kind it is functional. The arrangement: scale not given: the % may be the effect or the level left.

The results in this text go back to ChEMBL document CHEMBL1155038, “Discovery of phosphonic diamide prodrugs and their use for the oral delivery of a series of fructose 1,6-bisphosphatase inhibitors” (J Med Chem, 2008).

Each structure is given as a SMILES string. Bounds are passed on as bounds.

On to `CCOC(=O)[C@H](C)NP(=O)(N[C@@H](C)C(=O)OCC)c1ccc(-c2nc(N)sc2CC(C)C)o1`, for which the F in the series on Rattus norvegicus [1] worked out at 22%. Further, in the series on Rattus norvegicus [2], the Activity is listed as 59%. Further, in the series with Rattus norvegicus [3], the Time came to 2 h. In addition, the Drug uptake in the series with Hepatocyte is given as 7 nmol. For the same molecule, the Stability in series [4] was 0.004 nM/min.

Turning to `CCOC(=O)CNP(=O)(NCC(=O)OCC)c1ccc(-c2nc(N)sc2CC(C)C)o1`, the F in the series with Rattus norvegicus [1] is 26%. Further, the Activity with Rattus norvegicus [2] is 51%. Moreover, the Time with Rattus norvegicus [3] came to 2 h. With `CC(C)Cc1sc(N)nc1-c1ccc(P(=O)(OCOC(=O)C(C)(C)C)OCOC(=O)C(C)(C)C)o1`, the F in the series on Rattus norvegicus [1] amounted to 11%.

For `CC(C)Cc1sc(N)nc1-c1ccc(P(=O)(NCC(=O)OCc2ccccc2)NCC(=O)OCc2ccccc2)o1`, the F in the series on Rattus norvegicus [1] amounted to 17%.

In the case of `CCCSc1sc(N)nc1-c1ccc(P(=O)(NC(C)(C)C(=O)OCC)NC(C)(C)C(=O)OCC)o1`, in the series on Rattus norvegicus [1], the F turned out to be 31%. The Activity with Rattus norvegicus [2] is 51%. For the same molecule, the Time in the series on Rattus norvegicus [3] turned out to be 2 h. For `CCCSc1sc(N)nc1-c1ccc(P(=O)(N[C@@H](COC(C)(C)C)C(=O)OC)N[C@@H](COC(C)(C)C)C(=O)OC)o1`, the F with Rattus norvegicus [1] turned out to be 9%.

On to `CC(C)Cc1sc(N)nc1-c1ccc(P(=O)(NCC(=O)OC(C)(C)C)NCC(=O)OC(C)(C)C)o1`, for which the F in the series on Rattus norvegicus [1] is recorded as 9%. As for `CCCSc1sc(N)nc1-c1ccc(P(=O)(N[C@@H](C)C(=O)OCC)N[C@@H](C)C(=O)OCC)o1`, in the series on Rattus norvegicus [1], the F is 17%. Turning to `CCOC(=O)c1sc(N)nc1-c1ccc(P(=O)(N[C@H](C(=O)OCC)C(C)C)N[C@H](C(=O)OCC)C(C)C)o1`, the F in the series on Rattus norvegicus [1] was determined as 6%. For the molecule `CCOC(=O)[C@H](CC(C)C)NP(=O)(N[C@@H](CC(C)C)C(=O)OCC)c1ccc(-c2nc(N)sc2CC(C)C)o1`, in the series with Rattus norvegicus [1], the F is listed as 3%. On the same count and under the same terms, the figure for `CCOC(=O)c1sc(N)nc1-c1ccc(P(=O)(NC2(C(=O)OCC)CCCC2)NC2(C(=O)OCC)CCCC2)o1` is 5%; for `CC(C)COC(=O)[C@H](C)NP(=O)(N[C@@H](C)C(=O)OCC(C)C)c1ccc(-c2nc(N)sc2CC(C)C)o1` it is 10%; for `CCOC(=O)[C@H](C)NP(=O)(N[C@@H](C)C(=O)OCC)c1ccc(-c2nc(N)sc2-c2ccccc2)o1` it is 31%. As to `CCCSc1sc(N)nc1-c1ccc(P(=O)(NC2(C(=O)OCC)CCCC2)NC2(C(=O)OCC)CCCC2)o1`, the F in the series on Rattus norvegicus [1] came to 49%. On to `CC(C)Cc1sc(N)nc1-c1ccc(P(=O)(N[C@@H](C)C(=O)OCC(C)(C)C)N[C@@H](C)C(=O)OCC(C)(C)C)o1`, for which the F with Rattus norvegicus [1] stood at 18%. In the case of `CCCSc1sc(N)nc1-c1ccc(P(=O)(N[C@@H](C)C(=O)OC(C)C)N[C@@H](C)C(=O)OC(C)C)o1`, in the series with Rattus norvegicus [1], the F worked out at 17%.

Regarding `CCCOC(=O)[C@H](C)NP(=O)(N[C@@H](C)C(=O)OCCC)c1ccc(-c2nc(N)sc2SCCC)o1`, the F in the series with Rattus norvegicus [1] turned out to be 19%.

In the case of `CC(C)Cc1sc(N)nc1-c1ccc(P(=O)(N[C@@H](C)C(=O)OC(C)C)N[C@@H](C)C(=O)OC(C)C)o1`, the F in the series with Rattus norvegicus [1] turned out to be 31%. For the same molecule, in the series on Rattus norvegicus [2], the Activity is 63%. In addition, in the series with Rattus norvegicus [3], the Time came to 2 h.

For the molecule `CCCOC(=O)[C@H](C)NP(=O)(N[C@@H](C)C(=O)OCCC)c1ccc(-c2nc(N)sc2CC(C)C)o1`, the F in the series with Rattus norvegicus [1] came out at 16%. In the case of `CCOC(=O)c1sc(N)nc1-c1ccc(P(=O)(N[C@@H](CC)C(=O)OCC)N[C@@H](CC)C(=O)OCC)o1`, the F in the series on Rattus norvegicus [1] was determined as 5%. On the same count and under the same terms, in the case of `CCC[C@H](NP(=O)(N[C@@H](CCC)C(=O)OCC)c1ccc(-c2nc(N)sc2C(=O)OCC)o1)C(=O)OCC` it was 4%.

Turning to `CC(C)OC(=O)[C@H](C)NP(=O)(N[C@@H](C)C(=O)OC(C)C)c1ccc(-c2nc(N)sc2-c2ccccc2)o1`, the F in the series on Rattus norvegicus [1] turned out to be 23%. The molecule further displayed an Activity in the series on Rattus norvegicus [2] of 19%. The Time in the series with Rattus norvegicus [3] was 5 h. `CCOC(=O)C(C)(C)NP(=O)(NC(C)(C)C(=O)OCC)c1ccc(-c2nc(N)sc2-c2ccccc2)o1`: in the series with Rattus norvegicus [1], the F was determined as 30%. Also, the Activity in the series with Rattus norvegicus [2] stood at 25%. The Time in the series on Rattus norvegicus [3] stood at 2 h. `CCOC(=O)[C@H](C)NP(=O)(N[C@@H](C)C(=O)OCC)c1ccc(-c2nc(N)sc2SC)o1`: in the series on Rattus norvegicus [1], the F is reported as 23%. The Activity with Rattus norvegicus [2] was 38%. For the same molecule, the Time in the series with Rattus norvegicus [3] came out at 2 h. For `CCOC(=O)c1sc(N)nc1-c1ccc(P(=O)(N[C@@H](C)C(=O)OCC)N[C@@H](C)C(=O)OCC)o1`, in that order: 30%, 12% and 3 h.

With `CCCSc1sc(N)nc1-c1ccc(P(=O)(NC2(C(=O)OCC)CCCCC2)NC2(C(=O)OCC)CCCCC2)o1`, in the series on Rattus norvegicus [1], the F was determined as 1%. In the case of `CCCCOC(=O)[C@H](C)NP(=O)(N[C@@H](C)C(=O)OCCCC)c1ccc(-c2nc(N)sc2SCCC)o1`, the F in the series with Rattus norvegicus [1] is listed as 2%. Regarding `CCOC(=O)[C@@H](NP(=O)(N[C@H](C(=O)OCC)C(C)C)c1ccc(-c2nc(N)sc2CC(C)C)o1)C(C)C`, the F in the series with Rattus norvegicus [1] came to 7%. As to `CCOC(=O)[C@H](CC)NP(=O)(N[C@@H](CC)C(=O)OCC)c1ccc(-c2nc(N)sc2CC(C)C)o1`, the F in the series on Rattus norvegicus [1] came to 8%. In the case of `CCOC(=O)C(C)(C)NP(=O)(c1ccc(-c2nc(N)sc2CC(C)C)o1)N1CCOCC1` (configuration not stated), the F in the series with Rattus norvegicus [1] is listed as 32%. For the molecule `COC(=O)CNP(=O)(COCCn1cnc2c(N)ncnc21)NCC(=O)OC`, in the series on Rattus norvegicus [1], the F is on record as 2%. On to `CSc1sc(N)nc1-c1ccc(P(=O)(O)O)o1`, for which the Activity in the series with Rattus norvegicus [5] is on record as greater than 50%. For `CCOC(=O)C(C)(C)NP(=O)(COCCn1cnc2c(N)ncnc21)NC(C)(C)C(=O)OCC`, the F in the series on Rattus norvegicus [1] turned out to be 4%. Still for that read-out and setting: the figure for `CC(C)Cc1sc(N)nc1-c1ccc(P(=O)(OCOC(=O)OC(C)C)OCOC(=O)OC(C)C)o1` is 13%; for `CC(C)Cc1sc(N)nc1-c1ccc(P(=O)(N[C@@H](C)C(=O)OCc2ccccc2)N[C@@H](C)C(=O)OCc2ccccc2)o1` it is 11%.

Take `CCOC(=O)c1sc(N)nc1-c1ccc(P(=O)(O)O)o1`: in the series on Rattus norvegicus [5], the Activity is reported as greater than 50%.

Molecule `Nc1nc(-c2ccc(P(=O)(O)O)o2)c(-c2ccccc2)s1` showed an Activity with Rattus norvegicus [5] greater than 50%. As for `CCOC(=O)[C@H](CSCc1ccccc1)NP(=O)(N[C@@H](CSCc1ccccc1)C(=O)OCC)c1ccc(-c2nc(N)sc2CC(C)C)o1`, the F with Rattus norvegicus [1] was 5%. As to `CCOC(=O)[C@H](Cc1ccccc1)NP(=O)(N[C@@H](Cc1ccccc1)C(=O)OCC)c1ccc(-c2nc(N)sc2CC(C)C)o1`, the F in the series on Rattus norvegicus [1] is 3%. As for `CCCSc1sc(N)nc1-c1ccc(P(=O)(N[C@@H](C)C(=O)OC2CCCCCC2)N[C@@H](C)C(=O)OC2CCCCCC2)o1`, the F with Rattus norvegicus [1] was found to be 12%. Regarding `CC(C)CNP(=O)(NCC(C)C)c1ccc(-c2nc(N)sc2CC(C)C)o1`, the F in the series with Rattus norvegicus [1] is reported as 0%. The molecule `CCCSc1sc(N)nc1-c1ccc(P(=O)(O)O)o1` registered an Activity in the series with Rattus norvegicus [5] greater than 50%. As to `CCOC(=O)C1(NP(=O)(NC2(C(=O)OCC)CCCC2)c2ccc(-c3nc(N)sc3CC(C)C)o2)CCCC1`, the F in the series with Rattus norvegicus [1] is 27%. The molecule further displayed an Activity with Rattus norvegicus [2] of 20%. Further, the Time in the series on Rattus norvegicus [3] was 2 h. With `COC(=O)[C@@H](C)NP(=O)(N[C@H](C)C(=O)OC)c1ccc(-c2nc(N)sc2CC(C)C)o1`, the F with Rattus norvegicus [1] stood at 22%. Further, the Activity in the series with Rattus norvegicus [2] worked out at 26%. In addition, in the series with Rattus norvegicus [3], the Time was 2 h. For `CCOC(=O)C(C)(C)NP(=O)(NC(C)(C)C(=O)OCC)c1ccc(-c2nc(N)sc2SC)o1`, in that order: 45%, 80% and 2 h. In the case of `CCCSc1sc(N)nc1-c1ccc(P(=O)(N[C@@H](CCC)C(=O)OCC)N[C@@H](CCC)C(=O)OCC)o1`, in the series with Rattus norvegicus [1], the F was 6%. As to `CCCSc1sc(N)nc1-c1ccc(P(=O)(N[C@@H](C)C(=O)OC(C)(C)C)N[C@@H](C)C(=O)OC(C)(C)C)o1`, the F in the series on Rattus norvegicus [1] is 4%. `CCOC(=O)C(C)(C)NP(=O)(NC(C)(C)C(=O)OCC)c1ccc(-c2nc(N)sc2CC(C)C)o1`: in the series with Rattus norvegicus [1], the F stood at 47%. Further, the Activity in the series on Rattus norvegicus [2] is recorded as 45%. In addition, the Time with Rattus norvegicus [3] stood at 2 h. On to `CCCSc1sc(N)nc1-c1ccc(P(=O)(N[C@H](C(=O)OCC)C(C)C)N[C@H](C(=O)OCC)C(C)C)o1`, for which the F in the series on Rattus norvegicus [1] is given as 6%. Consider `CCCSc1sc(N)nc1-c1ccc(P(=O)(N[C@@H](CC)C(=O)OCC)N[C@@H](CC)C(=O)OCC)o1`, for which the F with Rattus norvegicus [1] is recorded as 6%. `CCOC(=O)C(C)(C)NP(=O)(c1ccc(-c2nc(N)sc2CC(C)C)o1)N1CCCC1` (configuration not stated): in the series on Rattus norvegicus [1], the F turned out to be 37%. Take `CCOC(=O)C(C)NP(=O)(NC(C)C(=O)OCC)c1ccc(-c2nc(N)sc2CC(C)C)o1` (mixture of isomers): the F with Rattus norvegicus [1] came out at 28%. The molecule also registered an Activity in the series on Rattus norvegicus [2] of 52%. Also, the Time in the series with Rattus norvegicus [3] stood at 2 h. As to `CC(C)Cc1sc(N)nc1-c1ccc(P(=O)(O)O)o1` [MB-05032], the F with Rattus norvegicus [1] was 2%. Further, the Activity in the series with Rattus norvegicus [5] is greater than 50%.
